One series deals with PBMCs. Type of series: cell-based, human. The note with it: 8nM; 6 days after αCD3/28 activation; each row one participant. The method, then:
(§1) Next, we evaluated the ability of the candidate LPAs to sustain the inhibitory effects during a prolonged ex vivo culture. To this end, PBMCs were cultured in the presence of individual drugs in DMSO or in DMSO alone as control, activated (anti-CD3/CD28), and harvested after 6 days. […] However, we decided to test the drug on day 6 because extra cells were available from some study participants.
(§2) For quantification of cell-associated HIV transcripts, PBMCs were harvested either after 24 hours or after 6 days. The cell viabilities were measured by trypan blue staining; then the cells were pelleted by centrifuging at 300g for 6 minutes and stored at –80°C. For quantification of virion-associated HIV RNA, cell culture supernatant was collected from 6 × 10^6 PBMCs that were treated and activated for 6 days as described above. Residual cells and cellular debris were subsequently removed from the supernatant by differential centrifugation (300g for 6 minutes, then 20,000g for 10 minutes), and the supernatant was stored at –80°C.
A) After six days, the viability was measured by trypan blue staining and then normalized to the levels of the activated DMSO (% of activated DMSO). Bars indicate medians and different colors indicate individual study participants. B-F) Each drug was tested in PBMCs from at least six ART-suppressed study participants (except for KRIBB11, n=5) and the PBMCs were aliquoted into wells at 6x10^6 cells/well. After activation, the cells were cultured with antiretrovirals in the presence of individual drugs in DMSO or DMSO alone as control. After six days, total RNA was extracted and the progression through different stages of HIV transcription was (1 picture or pasted object on this page, not shown here)

The test system of series [1] is HIV transcripts (TAR, LLTR, Pol, PolyA, TatRev). The experiment in a line: Cell-associated HIV transcripts (RT-ddPCR) 6 days after anti-CD3/CD28 activation of PBMCs from ART-suppressed PWH. Type of series: cell-based. To be noted: for LLTR/TAR / PolyA/LLTR / TatRev/PolyA: DMSO+CD3/28 = 1, Fig 4B, C and D; for Pol / PolyA / TAR / TatRev: DMSO αCD3/28 = 100, Fig 4A. On the procedure: as §1
Each drug was tested in PBMCs from at least 6 ART-suppressed study participants (except for KRIBB11, n = 5). PBMCs were aliquoted into wells at 6 × 10^6 cells/well. After activation, the cells were cultured with antiretrovirals in the presence of individual drugs in DMSO or DMSO alone as control. All conditions were tested in the presence of CD3/28 T cell–activating beads, except for the unactivated DMSO condition. After 6 days, total cellular RNA was extracted, and the progression through different stages of HIV transcription was quantified by measuring the levels of initiated (TAR), 5′ elongated (LLTR), midtranscribed/unspliced (Pol), completed (PolyA), and multiply spliced (TatRev) HIV transcripts. (A) The levels of all HIV transcripts were normalized to 1 μg of total cellular RNA and expressed as a percentage of the activated DMSO control (% of activated DMSO). Medians are shown as well as the individual values per study participant in different colors. (B–D) The effect of each drug on HIV transcriptional progression after activation was analyzed by the ratio of one HIV transcript to another. Ratios are independent of HIV infection frequency or normalization to cell numbers. Shown are the proportion of (B) all HIV transcripts that are elongated (LLTR/TAR), (C) elongated HIV transcripts that are completed (PolyA/LLTR), and (D) completed transcripts that are multiply spliced (TatRev/PolyA). Medians and IQR are presented, along with the individual values per study participant in different colors. P values were calculated using Wilcoxon’s signed-rank test: *P < 0.05.
PBMCs were isolated from fresh venous blood from 16 ART-suppressed HIV-infected study participants using Ficoll density gradient centrifugation. The cells were seeded at 6 × 10^6 cells/well and cultured with antiretrovirals (nevirapine and indinavir) to prevent new infection. On the next day, PBMCs were activated with anti-CD3/CD28–coated beads (Invitrogen) in the presence of 20 U/mL IL-2 and individual drugs in DMSO or DMSO alone as a control. Since we were limited in the PBMC yield per study participant, different study participants were used for different experiments (such as the initial screen, dose response, different time points, and studies in activated vs. unstimulated cells). In addition, the yields of PBMCs were sometimes insufficient to test all drugs for a given question or experiment.
as §2
Total cellular DNA and RNA were extracted in parallel using Trireagent (Molecular Research Center) according to the manufacturer’s instructions, except for study participants 2147 and 2461 (Figure 4), for whom DNA and RNA were extracted using the QIAGEN AllPrep DNA/RNA/miRNA Universal Kit with on-column DNase I treatment of the RNA and the manufacturer’s modification to enhance recovery of short transcripts.

Where “and” joins values, the source holds several entries; their conditions need not be identical. Equal values may be shown once.

Take `CC(=O)N[C@@H]1CCC[C@H](C(=O)Nc2cc(-c3cnn4c3CC(C)(C)C4)c(Cl)cn2)C1` [AZD4573]: in the series on PBMCs, the “Cell viability (DMSO αCD3/28 = 100)” value is 123.6 and 120.68 and 105.88 and 140.1 and 117.5 and 116.7 and 104.1. Also, the LLTR/TAR in series [1] (participant 2027) amounted to 0.3501; in series [1] (participant 2147a), 0.6972; in series [1] (participant 2161) it was 0.7137; in series [1] (participant 2461), 1.973; in series [1] (participant 2750) it was 0.6631. The PolyA/LLTR in series [1] (participant 2027) is on record as 0.2124; in series [1] (participant 2147a), 0.4073; in series [1] (participant 2161), 1.39; in series [1] (participant 2461), 0.4151; in series [1] (participant 2747), 0.4425; in series [1] (participant 2750), 1.188. Further, the TatRev/PolyA is listed as 0 in series [1] (participant 2027), 0.2876 in series [1] (participant 2147a), 0 in series [1] (participant 2161) and 0.2617 in series [1] (participant 2750).

`CNc1ccc([N+](=O)[O-])c(Nc2ccc3[nH]ncc3c2)n1` [KRIBB11]: the “LLTR HIV transcripts (DMSO αCD3/28 = 100)” value in series [1] (2.5μM, 6 days after αCD3/28 activation, each column one participant) was 71.6 and 44.44 and 38.82 and 82.14 and 98.47. In series [1] (participant 2027), the Pol was 73.68, the PolyA is given as 106.67, the TAR stood at 139.39 and the TatRev is reported as 11.11. In series [1] (participant 2027), this molecule returned an LLTR/TAR of 0.5893, a PolyA/LLTR of 1.299 and a TatRev/PolyA of 0.1042. Further, in series [1] (participant 2147a), the Pol is listed as 33.33, the PolyA is recorded as 22.8, the TAR was 563.24 and the TatRev is on record as 46.99. In series [1] (participant 2147a), the LLTR/TAR amounted to 0.1271, the PolyA/LLTR stood at 0.3184 and the TatRev/PolyA is recorded as 1.2464. In series [1] (participant 2256), this molecule returned a Pol of 169.23, a PolyA of 89.76, a TAR of 111.27 and a TatRev of 84.19. In series [1] (participant 2256), this molecule showed an LLTR/TAR of 0.8849, a PolyA/LLTR of 0.9116 and a TatRev/PolyA of 1.489. Also, in series [1] (participant 2461), the PolyA turned out to be 176.92, the TAR came out at 67.9, the LLTR/TAR is recorded as 0.5717 and the PolyA/LLTR came out at 4.558. Also, in series [1] (participant 2747), the Pol worked out at 8.97, the PolyA amounted to 19.67, the TAR was found to be 56.38 and the TatRev was 30.

Regarding `CN1CC[C@H](c2c(O)cc(O)c3c(=O)cc(-c4ccccc4Cl)oc23)[C@H](O)C1` [alvocidib], the LLTR/TAR is 0.5959 in series [1] (participant 150b); 0.8323 in series [1] (participant 1379); 0.4309 in series [1] (participant 2027); 0.3521 in series [1] (participant 2147a); 1.064 in series [1] (participant 2161); 0.6179 in series [1] (participant 2256). The LLTR/TAR amounted to 1.513 in series [1] (participant 2461), 0 in series [1] (participant 2747) and 0.4901 in series [1] (participant 5557). The PolyA/LLTR in series [1] (participant 150b) is given as 1.023; in series [1] (participant 1379) it was 0.9327; in series [1] (participant 2027), 0.9713; in series [1] (participant 2147a), 0.4486; in series [1] (participant 2161) it was 0.55; in series [1] (participant 2256) it was 0.6868. Also, the PolyA/LLTR is on record as 1.443 in series [1] (participant 2461) and 0.9442 in series [1] (participant 5557). In addition, the TatRev/PolyA in series [1] (participant 150b) is 0.12; in series [1] (participant 2027), 0.1413; in series [1] (participant 2147a) it was 0.2041; in series [1] (participant 2256), 0.617.

Take `CCc1cnn2c(NCc3ccc[n+]([O-])c3)cc(N3CCCC[C@H]3CCO)nc12` [dinaciclib]: the LLTR/TAR in series [1] (participant 150b) was 0.1874; in series [1] (participant 2027), 0.2578; in series [1] (participant 2147a) it was 2.005; in series [1] (participant 2161) it was 1.155; in series [1] (participant 2461), 2.038; in series [1] (participant 2750) it was 1.778. Also, the PolyA/LLTR in series [1] (participant 150b) is reported as 1.735; in series [1] (participant 2027), 0.8564; in series [1] (participant 2147a), 0.4014; in series [1] (participant 2161), 1.48; in series [1] (participant 2461), 3.944; in series [1] (participant 2750), 2.886. Also, the TatRev/PolyA in series [1] (participant 150b) is listed as 1.49; in series [1] (participant 2027), 0.1946; in series [1] (participant 2147a), 0.7191; in series [1] (participant 2161) it was 1.061; in series [1] (participant 2750), 0.2646.

On to `N#CC[C@H](C1CCCC1)n1cc(-c2ncnc3[nH]ccc23)cn1` [ruxolitinib], for which the LLTR/TAR in series [1] (participant 150b) is given as 0.6749; in series [1] (participant 2027), 0.1463; in series [1] (participant 2147a), 0.473; in series [1] (participant 2161), 2.396; in series [1] (participant 2461), 3.402; in series [1] (participant 2747) it was 0.4032. Also, the LLTR/TAR in series [1] (participant 2750) is listed as 1.117. Besides, the PolyA/LLTR turned out to be 0.4135 in series [1] (participant 150b); 0.4929 in series [1] (participant 2027); 0.2896 in series [1] (participant 2147a); 0.46 in series [1] (participant 2161); 0 in series [1] (participant 2461); 1.05 in series [1] (participant 2747). This molecule also registered a PolyA/LLTR in series [1] (participant 2750) of 1.35. Further, the TatRev/PolyA is on record as 0.45 in series [1] (participant 150b); 0 in series [1] (participant 2027); 0 in series [1] (participant 2147a); 0 in series [1] (participant 2161); 0 in series [1] (participant 2747); 1.555 in series [1] (participant 2750).

On to mithramycin A, for which the LLTR/TAR in series [1] (participant 150b) came out at 3.173; in series [1] (participant 1379) it was 7.408; in series [1] (participant 1713), 1.88; in series [1] (participant 2147b) it was 0.4766; in series [1] (participant 2256), 1.969; in series [1] (participant 2750) it was 4.292. Further, the LLTR/TAR in series [1] (participant 5557) worked out at 0.2056. Further, the PolyA/LLTR in series [1] (participant 150b) was 0.3062; in series [1] (participant 1379), 0.07562; in series [1] (participant 1713), 1.25; in series [1] (participant 2147b), 0.7007; in series [1] (participant 2256), 0; in series [1] (participant 2750), 1.638. In addition, the PolyA/LLTR in series [1] (participant 5557) came to 46.0561. Also, the TatRev/PolyA in series [1] (participant 150b) was found to be 1.15; in series [1] (participant 1379) it was 0; in series [1] (participant 1713), 0; in series [1] (participant 2147b) it was 0; in series [1] (participant 2750) it was 0.3964; in series [1] (participant 5557) it was 3.456.
